Measured values as given in patent publication US20230158100A1, “TREATMENT OF PANX1 ASSOCIATES DISEASES” (NURITAS LIMITED, priority 2020, published 2023).
Like-named read-outs stand apart in the source and are kept apart here. No end group written: not given here. Cy5 = Cy5 cyanine dye label

Experiments:
[1] = cited from earlier work
[2] = Werle and Bernkop-Schnürch 2006; cited from earlier work
[3] = system: lipoproteins; conditions: binding to lipoproteins; cited from earlier work
[4] = system: PANX1; assay: Retrogenix cell microarray, confirmation on fixed and live cells; assay type: binding, human; conditions: for binding / specific interaction with PANX1: fixed HEK293 cells, 0.01 and 0.05 μg/ml, two separate expression clones
Sequence of PANX1 (Q96RD7 1-400 limits assumed): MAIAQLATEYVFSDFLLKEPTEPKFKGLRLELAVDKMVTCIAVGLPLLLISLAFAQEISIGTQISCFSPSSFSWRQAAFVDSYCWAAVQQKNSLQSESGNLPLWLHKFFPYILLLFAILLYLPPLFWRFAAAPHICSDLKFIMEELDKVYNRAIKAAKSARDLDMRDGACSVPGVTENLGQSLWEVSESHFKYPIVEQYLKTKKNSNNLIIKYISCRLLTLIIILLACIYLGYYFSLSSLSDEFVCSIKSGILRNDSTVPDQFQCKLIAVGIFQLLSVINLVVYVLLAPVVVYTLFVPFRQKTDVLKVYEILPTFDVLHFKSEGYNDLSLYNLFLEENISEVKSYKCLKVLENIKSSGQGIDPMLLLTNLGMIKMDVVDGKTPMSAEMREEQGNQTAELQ
Experimental: (§1) CY5-labelled peptide (SEQUENCE ID NO. 1; (0.01 & 0.05 μg/ml) was screened for binding against fixed HEK293 Cells expressing 5528 human plasma membrane proteins. Screening was carried across two replicates and initial hits were selected and screened in more specific confirmation assay.
(§2) To confirm extracellular membrane binding of the peptide in culture, receptor screening was carried out (Retrogenix). Retrogenix's cell microarray technology was used to screen for specific cell surface target interactions of a CY5 labelled peptide (pep_HTWCFL the CY5 labelled version of SEQUENCE ID NO. 1).
(§3) Under this condition, the test peptide was screened for binding against fixed human HEK293 cells, individually expressing 5528 full-length human plasma membrane proteins and secreted proteins.
(§4) Each primary hit was then re-expressed, along with two control receptors (CD20 (MS4A1) and EGFR), and re-tested with 0.01 μg/ml and 0.05 μg/ml test peptide, equal concentrations of a control peptide, and other positive and negative control treatments. […] Among these were PANX1 (from two separate expression clones), SLC35F2 and TACR1.

[5] = target: T1, SLC35F2 (Homo sapiens, UniProt Q8IXU6); assay: as above; assay type: binding; conditions: for binding / specific interaction with SLC35F2: fixed HEK293 cells, 0.01 and 0.05 μg/ml
T1 construct: individually expressing 5528 full-length human plasma membrane proteins and secreted proteins; host or cells: HEK293 (fixed and live)
T1 sequence (Q8IXU6 1-374): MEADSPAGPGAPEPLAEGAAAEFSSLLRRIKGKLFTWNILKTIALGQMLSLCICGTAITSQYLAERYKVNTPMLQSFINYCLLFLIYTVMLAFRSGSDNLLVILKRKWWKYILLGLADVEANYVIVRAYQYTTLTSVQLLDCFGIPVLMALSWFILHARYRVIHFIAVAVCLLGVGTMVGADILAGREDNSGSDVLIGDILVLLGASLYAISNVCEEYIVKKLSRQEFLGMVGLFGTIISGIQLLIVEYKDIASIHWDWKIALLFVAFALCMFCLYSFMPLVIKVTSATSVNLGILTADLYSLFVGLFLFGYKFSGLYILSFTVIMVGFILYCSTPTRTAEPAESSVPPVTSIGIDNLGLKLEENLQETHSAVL
Experimental: as §1, §2, §3, §4

[6] = target: T2, TACR1 (Substance P receptor) (Homo sapiens, UniProt P25103); assay: as above; assay type: binding; conditions: for binding / specific interaction with TACR1: fixed HEK293 cells, 0.01 and 0.05 μg/ml
T2 construct: individually expressing 5528 full-length human plasma membrane proteins and secreted proteins; host or cells: HEK293 (fixed and live)
T2 sequence (P25103 whole entry): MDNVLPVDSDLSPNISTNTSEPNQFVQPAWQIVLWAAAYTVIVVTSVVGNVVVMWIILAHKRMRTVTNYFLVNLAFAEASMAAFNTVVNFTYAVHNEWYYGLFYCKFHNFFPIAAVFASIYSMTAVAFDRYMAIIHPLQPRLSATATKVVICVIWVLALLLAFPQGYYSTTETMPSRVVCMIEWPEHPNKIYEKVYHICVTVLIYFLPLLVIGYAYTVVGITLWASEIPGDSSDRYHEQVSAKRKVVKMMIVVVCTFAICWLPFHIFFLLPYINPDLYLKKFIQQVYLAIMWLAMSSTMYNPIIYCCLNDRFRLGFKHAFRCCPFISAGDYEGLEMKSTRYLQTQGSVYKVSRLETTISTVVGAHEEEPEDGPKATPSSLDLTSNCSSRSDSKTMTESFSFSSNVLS
Experimental: as §1, §2, §3, §4

[7] = system: IL-8; assay: IL-8 secretion in LPS-treated HepG2 cells; assay type: cell-based; conditions: peptide 5 ng/ml for 24 h, then 100 ng/mL LPS for 24 h
Experimental: FIG. 4 illustrates peptide of SEQUENCE ID NO. […] HepG2 cells were treated with peptide (5 ng/ml) for 24 h before treating with 100 ng/mL of LPS for 24 h. Data presented are the mean±SEM of at least 2 independent experiments. (*p<0.05 **p<0.01 ***p<0.001)
HepG2 cells were treated with peptide (5 ng/ml) for 24 h before treating with 100 ng/mL of LPS for 24 h. Data presented are the mean±SEM of at least two independent experiments. (*p<0.05 **p<0.01 ***p<0.001)

[8] = system: α-SMA; assay: Anti-fibrotic activity in human primary hepatic stellate cells (α-SMA); assay type: cell-based
Experimental: FIG. 5A and B illustrate peptide of SEQUENCE ID NO. […] (A) Confocal imaging of human stellate cells treated with TGF-β1 to stimulate expression of α-SMA before treatment with peptide (5 nM). (B) Quantification of α-SMA expression.
Human stellate cells were treated with TGF-β1 to stimulate expression of α-SMA (smooth muscle action; primary marker for fibrosis) before treatment with the peptide (5 nM; SEQUENCE ID NO. 1). Confocal imaging of the cells was undertaken.

[9] = system: human skeletal muscle cells (HSKMC Cells); assay: Cell penetration imaging in human skeletal muscle cells; assay type: cell-based; conditions: 60 mins incubation, CY5 tagged peptide
Experimental: An array of imaging studies was conducted to determine the kinetics and nature of the peptide (SEQUENCE ID NO. 1) interaction with target cell types. These experiments were required to determine if the peptide target was an intra or extra cellular protein. […] Control staining with the unlabelled CY5 dye should no uptake in this cell type.

[10] = target: T3, Panx1 (Homo sapiens, UniProt Q96RD7); assay: Intracellular peptide concentration after PANX1 activation (Caco2); assay type: cell-based; set-up: endogenous in cells; host or cells: Caco2; conditions: Caco2 cells, before and after channel activation by increased extracellular calcium
T3 sequence (Q96RD7 whole entry): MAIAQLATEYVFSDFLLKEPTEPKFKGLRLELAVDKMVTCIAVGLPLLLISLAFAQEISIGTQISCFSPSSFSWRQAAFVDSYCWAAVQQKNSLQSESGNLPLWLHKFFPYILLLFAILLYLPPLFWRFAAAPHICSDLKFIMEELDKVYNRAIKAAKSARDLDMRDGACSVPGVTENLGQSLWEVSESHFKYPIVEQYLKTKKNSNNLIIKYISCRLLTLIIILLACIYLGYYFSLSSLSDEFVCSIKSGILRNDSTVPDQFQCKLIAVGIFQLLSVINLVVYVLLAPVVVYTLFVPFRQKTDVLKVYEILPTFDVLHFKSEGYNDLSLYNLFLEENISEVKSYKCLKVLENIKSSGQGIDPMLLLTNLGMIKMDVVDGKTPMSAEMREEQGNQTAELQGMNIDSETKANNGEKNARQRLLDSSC
Experimental: The peptide of the invention (SEQUENCE ID NO. 1) was added to cells (Caco2). The PANX1 channel was activated in cells by increasing extracellular calcium levels. The intracellular concentration of the peptide was measured before and after activation.

[11] = target: T3, Panx1; assay: Ca2+ flux assay and flow cytometry in THP-1 cells; assay type: cell-based; set-up: endogenous in cells; host or cells: THP-1; conditions: 45 s preincubation with 1 μM peptide, ATP stimulation
Text: FIG. 9A, B and C illustrate downregulation of ATP mediated Ca2+ ions flux by the peptide (SEQUENCE ID NO. 1). ATP treatment of THP-1 cells causes an increase in detection of FITC labelled Ca^2+ ions (A). […] Comparison of FITC fluorescent units detected via flow cytometry, independent of the peptide and in the presence of the peptide (C).
Panx-1 binding with the peptide (SEQUENCE ID NO. 1) was investigated using a Ca^2+ flux assay and flow cytometry. Panx-1 plays an important role in regulating the Ca^2+ ion and ATP balance at the cell membrane. This relationship can be leveraged to monitor the activity of Panx1. Blocking Panx1 should lead to a significant decrease in Ca^2+ flux in the cell, in response to ATP stimulation.
THP-1 cells were incubated with a FITC fluorescent dye for a period of 30 min in order to label intracellular Ca^2+ ions. Cells were then stimulated with ATP to drive calcium flux from the cell, this increase in fluorescence is then detected by flow cytometry. Prior to ATP stimulation, the cells are incubated with 1 μM doses of the peptide in order to investigate if a drop in calcium flux is observed, this drop caused by binding of the peptide to Panx1, thus inhibiting ATP mediated calcium flux.

[12] = system: 5528 full-length human plasma membrane proteins and secreted proteins; assay: Retrogenix cell microarray screen on fixed HEK293 cells; assay type: binding
Experimental: as §1, §2, §3, §4

[13] = target: T4, SLC35F2 (human, UniProt Q8IXU6 1-374); assay: cell microarray, CY5-labelled peptide on fixed HEK293 cells expressing human plasma membrane proteins
T4 construct: whole, on cells
T4 sequence (looked up): T1 sequence (Q8IXU6 1-374)

[14] = target: T5, TACR1 (Substance P receptor) (human, UniProt P25103 1-407); assay: as above
T5 construct: whole, on cells
T5 sequence (P25103 whole entry): as the sequence (P25103 whole entry) above

For CCNC(=O)[C@@H]1CCCN1C(=O)[C@H](CCCNC(=N)N)NC(=O)[C@H](CC(C)C)NC(=O)[C@@H](COC(C)(C)C)NC(=O)[C@H](Cc1ccc(O)cc1)NC(=O)[C@H](CO)NC(=O)[C@H](Cc1c[nH]c2ccccc12)NC(=O)[C@H](Cc1cnc[nH]1)NC(=O)[C@@H]1CCC(=O)N1 [buserelin], the half-life ([1]; in humans, in words) is listed as “much longer half-life”.

For NC(=O)CC[C@@H]1NC(=O)[C@H](Cc2ccccc2)NC(=O)[C@H](Cc2ccc(O)cc2)NC(=O)CCSSC[C@@H](C(=O)N2CCC[C@H]2C(=O)N[C@H](CCCN=C(N)N)C(=O)NCC(N)=O)NC(=O)[C@H](CC(N)=O)NC1=O [desmopressin], the half-life ([1]; human, in vivo) is listed as 3.7 h.

For C[C@@H](O)[C@@H]1NC(=O)[C@H](CCCCN)NC(=O)[C@@H](Cc2c[nH]c3ccccc23)NC(=O)[C@H](Cc2ccccc2)NC(=O)[C@@H](NC(=O)[C@H](N)Cc2ccccc2)CSSC[C@@H](C(=O)N[C@H](CO)[C@@H](C)O)NC1=O [octreotide], the “plasma half life time” value [2] is given as 1.5 h, the fraction unbound [3] is given as 0.65 and the half-life ([1]; in humans) is given as “about 100 min”.

For NC(=O)CC[C@@H]1NC(=O)[C@H](Cc2ccccc2)NC(=O)[C@H](Cc2ccc(O)cc2)NC(=O)[C@@H](N)CSSC[C@@H](C(=O)N2CCC[C@H]2C(=O)N[C@@H](CCCN=C(N)N)C(=O)NCC(N)=O)NC(=O)[C@H](CC(N)=O)NC1=O [vasopressin], the half-life ([1]; in humans) is given as 0.167 to 0.583 h.

With WKDEAGKPLVK [SEQUENCE ID NO. 1] the “binding / specific interaction with PANX1” value [4] was “Highly Selective Targets”, the “binding / specific interaction with SLC35F2” value [5] was “Highly Selective Targets” and the “binding / specific interaction with TACR1” value [6] was “Highly Selective Targets”. The “secretion of IL-8” value [7] was “reduces the secretion of IL-8”, the “anti-fibrotic activity compared with Elafibranor” value ([8]; equivalent molar doses) was “outperformed Elafibranor” and the α-SMA expression ([8]; human stellate cells treated with TGF-β1, peptide 5 nM, confocal imaging) was “decrease in α-SMA expression”. For the same molecule, the intracellular accumulation [9] was “significant intracellular accumulation”, the “intracellular concentration of the peptide” value [10] was “increased when the channel is activated” and the “ATP mediated Ca2+ ion flux” value [11] was “blocks ATP mediated Ca^2+ ion flux”.

With “pep_HTWCFL: the CY5 labelled version of SEQUENCE ID NO. 1 (WKDEAGKPLVK; also: Cy5 label, position not given here)” the “primary hits in initial screening” value ([12]; 0.01 μg/ml test peptide on fixed cells for 30 minutes) was 43, the “specific interactions for the test peptide after re-expression of primary hits” value ([12]; re-tested with 0.01 μg/ml and 0.05 μg/ml test peptide, fixed cells) was “Nine” and the “binding / specific interaction with PANX1” value [4] was “specific interactions”. The signal to background ([4]; fixed cells) was “greatest signal to background”, the “binding signal on live cells” value ([4]; live cell microarray) was “lack of signals seen on live cells” and the “binding / specific interaction with SLC35F2” value [5] was “specific interactions”. The “specific interaction with SLC35F2” value ([5]; live cell microarray) was “specific interactions”, the “binding / specific interaction with TACR1” value [6] was “specific interactions” and the “specific interaction with TACR1” value ([6]; live cell microarray) was “specific interactions”.

B1: CY5-labelled peptide (pep_HTWCFL, the CY5 labelled version of SEQUENCE ID NO. 1) (peptide)
peptide: WKDEAGKPLVK-Cy5
notes: also called test peptide; C-terminal CY5 Tagged peptide
B1: binds [13]; binds [14].
